Patent US8865741B2, “Aminoindane compounds and use thereof in treating pain” (Asana Biosciences, LLC, priority 2011, dated 2014)
Where two headings read alike, the source gives them in different places.

Key:
rats [1] = experiment: Cutaneous anesthetic activity, cutaneous trunci muscle reflex (CTMR) pin-prick model; type: in vivo, rat
Experimental: Rats were subjected to several days of acclimatization to the environment and the investigator prior to entering the study. About 24 hours before each experiment, the skin on the back of male rats was shaved using electronic clippers. The anesthetic action of test agents, following subcutaneous injection was determined using a “pin-prick” method as described by Khan (Khan et al., Anesthesiology, January 2002, 96(1): 109-116). Injection volumes were standardized at 100 μL, each injection caused a small wheal to develop—the boundary of which was marked with ink. The cutaneous trunci muscle reflex (CTMR) is a reflex movement of the skin due to twitches of the lateral thoracospinal muscles elicited by noxious stimulation of the dorsal cutaneous area. An 18-guage needle was used as the noxious stimulus; six stimuli were presented to an area of ‘normal’ skin to determine baseline sensitivity and this was then repeated in the area of the wheal. […] Data were represented as % maximal possible effect (MPE) where 100% indicates complete lack of response to each of the six needle presentations in the injected area. The extent of local anesthesia was assessed at regular intervals in order to generate efficacy-duration time plots.

[2] = test system: sodium channel in hTRPV1-N1E115 cells; experiment: FLIPR membrane potential assay of sodium channel response in hTRPV1-N1E115 cells, with (47° C.) or without (25° C.) heat activation of hTRPV1; type: cell-based; details: for hTRPV1-N1E Nav 1 mM (% inhibition) 25° C. / hTRPV1-N1E Nav 0.1 mM (% inhibition) 25° C.: 25° C. (no heat activation of hTRPV1); for IC50: read-out: hTRPV1-N1E IC50 (μM) 47° C.
In short: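 hTRPV1-N1E115 cells were loaded with membrane potential blue dye, and compound was added. Duplicate plates were either heated to 47 °C for 10 min then held 30 min at ~25 °C, or kept 40 min at room temperature. Activity was attenuation of the FLIPR Tetra signal induced by 100 μM veratridine (final).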

[3] = test system: Male Sprague Dawley (SD) rats; experiment: In vivo assay of mechanical nociception (rat pinch model, perisciatic injection); details: for Average Time of Analgesia: perisciatic
[4] = biological target: T1, human Nav1.5 sodium channel (Homo sapiens, UniProt Q14524); experiment: Inhibition of sodium channel response in hNav1.5-HEK293 cells (FLIPR, veratridine); type: cell-based; details: for IC50: average, read-out: HEK Nav 1.5 IC50 (μM) (AVG); for inhibition at 10 min, 0.5 mM / inhibition at 10 min, 1.5 mM: human, HEK-293 cells expressing human Nav1.5 (hNav1.5-HEK-293), pH 7.4; for inhibition at 10 min, 0.5 mM: read-out: HEK Nav 1.5 % inh. @ 0.5 mM; for inhibition at 10 min, 1.5 mM: read-out: HEK Nav 1.5 % inh. @ 1.5 mM
T1 construct: host or cells: HEK-293
T1 sequence (Q14524 whole entry): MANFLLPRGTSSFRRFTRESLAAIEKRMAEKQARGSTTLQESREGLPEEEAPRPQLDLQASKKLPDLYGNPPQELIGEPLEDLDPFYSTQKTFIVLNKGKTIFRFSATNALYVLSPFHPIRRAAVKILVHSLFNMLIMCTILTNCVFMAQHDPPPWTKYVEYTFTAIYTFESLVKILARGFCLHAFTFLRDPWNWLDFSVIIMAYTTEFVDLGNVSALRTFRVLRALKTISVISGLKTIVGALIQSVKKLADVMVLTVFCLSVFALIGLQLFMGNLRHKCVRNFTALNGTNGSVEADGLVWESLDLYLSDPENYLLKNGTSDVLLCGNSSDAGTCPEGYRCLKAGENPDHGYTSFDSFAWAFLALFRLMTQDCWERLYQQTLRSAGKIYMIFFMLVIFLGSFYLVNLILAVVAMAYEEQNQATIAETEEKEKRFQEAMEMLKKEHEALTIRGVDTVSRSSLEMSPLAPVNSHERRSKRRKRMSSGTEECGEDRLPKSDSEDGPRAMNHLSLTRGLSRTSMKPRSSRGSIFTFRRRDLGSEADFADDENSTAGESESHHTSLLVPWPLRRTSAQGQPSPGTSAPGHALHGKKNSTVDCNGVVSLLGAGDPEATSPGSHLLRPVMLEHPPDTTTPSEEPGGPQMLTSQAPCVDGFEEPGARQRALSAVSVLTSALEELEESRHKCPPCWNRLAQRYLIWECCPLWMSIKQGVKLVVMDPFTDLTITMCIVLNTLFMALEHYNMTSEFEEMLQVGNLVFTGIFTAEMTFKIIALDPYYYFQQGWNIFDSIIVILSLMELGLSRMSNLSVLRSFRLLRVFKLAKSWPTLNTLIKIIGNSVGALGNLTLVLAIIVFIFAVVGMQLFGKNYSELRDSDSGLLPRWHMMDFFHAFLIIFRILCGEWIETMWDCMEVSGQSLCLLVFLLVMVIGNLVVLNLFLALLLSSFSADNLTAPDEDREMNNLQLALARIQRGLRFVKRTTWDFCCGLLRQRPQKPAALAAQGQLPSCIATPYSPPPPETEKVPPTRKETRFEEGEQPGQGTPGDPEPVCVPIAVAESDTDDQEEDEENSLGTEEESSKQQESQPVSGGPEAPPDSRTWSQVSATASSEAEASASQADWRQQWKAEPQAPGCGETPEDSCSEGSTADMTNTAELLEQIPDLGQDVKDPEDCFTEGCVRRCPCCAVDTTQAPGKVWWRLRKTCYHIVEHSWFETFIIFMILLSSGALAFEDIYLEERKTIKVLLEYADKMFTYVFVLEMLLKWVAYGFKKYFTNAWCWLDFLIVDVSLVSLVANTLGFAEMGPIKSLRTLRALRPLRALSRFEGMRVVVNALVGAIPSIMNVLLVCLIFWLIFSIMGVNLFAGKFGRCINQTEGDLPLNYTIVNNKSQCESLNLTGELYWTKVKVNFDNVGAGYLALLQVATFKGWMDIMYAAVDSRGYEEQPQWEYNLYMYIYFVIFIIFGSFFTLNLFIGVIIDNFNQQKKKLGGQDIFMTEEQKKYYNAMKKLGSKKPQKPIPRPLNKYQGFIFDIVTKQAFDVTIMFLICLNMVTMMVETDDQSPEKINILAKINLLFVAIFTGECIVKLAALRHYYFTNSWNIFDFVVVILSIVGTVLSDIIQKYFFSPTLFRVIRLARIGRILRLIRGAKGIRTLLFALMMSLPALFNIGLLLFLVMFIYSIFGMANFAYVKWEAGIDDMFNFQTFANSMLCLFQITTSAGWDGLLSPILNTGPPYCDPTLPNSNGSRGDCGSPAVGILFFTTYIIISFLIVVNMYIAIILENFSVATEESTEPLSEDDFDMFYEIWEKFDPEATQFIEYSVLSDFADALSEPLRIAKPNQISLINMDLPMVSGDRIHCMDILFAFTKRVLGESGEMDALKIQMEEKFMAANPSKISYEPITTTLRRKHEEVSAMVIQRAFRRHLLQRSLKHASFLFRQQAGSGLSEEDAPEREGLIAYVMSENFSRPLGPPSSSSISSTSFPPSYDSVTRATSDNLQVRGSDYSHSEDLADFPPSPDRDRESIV
Experimental: C. Method for Assessing the Extent of Inhibition of Sodium Channel Response with Compounds in hNav1.5-HEK293 Cells.
The following assay was used to assess the tendency of the test compounds to block the dominant cardiac sodium channel isoform. Nav1.5 sodium channels are known to be permeable to quaternary sodium channel blockers such as QX-314 and, thus, the assay was performed in the absence of a chemical TRPV1 agonist.
The hNav1.5-HEK-293 cells (CreaCell, France, a human embryonic kidney cell line expressing the human Nav1.5 sodium channel) were cultured in Growth medium (containing 1×DMEM (Gibco)+10% FBS (PAA Gold)+2% Glutamine 100 mM (Gibco)+1% penicillin 10,000 U/mL streptomycin 10,000 μg/mL (Invitrogen)+1.2 mg/mL Geneticin G418 (Invitrogen)) in […] cell bind flasks (Corning). The following steps were followed exactly as mentioned. The spent medium was discarded and the cells rinsed once with PBS-1×. Accutase® (1-2 mL; PAA) solution was added. The plate was placed on a 37° C. warming incubator 3-5 minutes. As soon as cells are detached, 37° C. complete medium (9 mL) was added. The cell suspension was drawn into a sterile pipette and cells homogenized gently to dissociate cell aggregates. The cells were counted using a hemocytometer with Blue Trypan and then centrifuged 5 minutes at 400 g. The cells can be amplified or maintained by seeding […] in a T75 flask (final volume: 15 mL). 8000 cells in 50 μL Growth medium was added to each well of 384-well, clear bottomed, sterile poly-D-lysine coated plates with lid (Greiner-bio one) inside the laminar air-flow. The plates were incubated at 37° C. and 5% CO2 in a CO2 incubator (Thermo) for 48 hours.
On the day of the assay, cells were washed with Assay buffer, which was prepared using the components and amounts in Table 4. The pH was adjusted to 7.4 with NaOH, volume made up to 500 mL with Milli-Q® water.
Assay Buffer was added to the cells and incubated at rt (25° C.) for 10 minutes. The compounds were diluted in assay buffer. The compounds were added and incubated at rt (25° C.) for 10 minutes. Red FMP Dye (MDC) was added to the cells and the plate was incubated at rt (25° C.) for 30 minutes. Veratridine stock (20 mM; Sigma) was prepared in DMSO; veratridine (final concentration of 30 μM) in assay buffer was added to each well of the cell seeded plates in the FLIPR® system and read taken for 10 minutes. Table 5 provides data illustrating the sodium channel activity of the test compounds in response to the presence or absence of heat stimulation in cells expressing hTRPV1. The compounds were tested for differential activity at 25° C. and 47° C. and at two test concentrations. Compounds showing the most promising profiles were further evaluated for IC50 in the 47° C. assay, examples are shown in Table 5.

[5] = test system: sodium current in DRG neurons; details: co-applied with 1 μM capsaicin; whole-cell voltage clamp; read-out: in vitro apparent affinity (IC50) for blocking sodium current in DRG neurons; cited from earlier work
rats [6] = experiment: Sciatic function assay (foot print score, motor function); type: in vivo, rat; details: 200 μL of 0.2% with 2% lidocaine
Description: The sciatic function test is a simple observational gait analysis that provides a rudimentary assessment of hind-limb motor function according to a predetermined scoring scale based on a visual inspection of the animals foot prints as it ambulates on a flat surface (the basic principles of this test are provided in Lowdon (Journal of Neuroscience Methods 24(3), 1988, 279-281)). Following the injection of a test substance(s), the animal's hind paws are inked and it is then placed on a flat paper surface and permitted to ambulate freely. The footprint pattern left by the inked footpads on the paper is inspected and assigned a ‘foot print score’ based on a subjective assessment. […] A footprint score of 1-3 reflected that the weight bearing was primarily on the knees, that the ankle and toes were used sparingly, the toes were curled, and or the plantar surface of the paw is uplifted in a concave fashion. A footprint score of 4-6 reflects that the weight bearing is primarily on the knees and angle, with very little weight bearing on the toes. A footprint score of 6-10 reflects that the weight bearing is distributed over the knee, ankle, and toes and that there is an occasional sparing of the knee joints.

[7] = test compound 0.5%, lidocaine 0%, total injection 100 μL
[8] = test compound 0.5%, lidocaine 0%, total injection 200 μL
[9] = test compound 0.5%, lidocaine 2%, total injection 100 μL
[10] = test compound 0.5%, lidocaine 2%, total injection 200 μL
[11] = 47° C. (heat activation of hTRPV1)

Compound	hTRPV1-N1E Nav 1 mM (% inhibition) 25° C. ([2]; 1 mM)	IC50 ([2]; 47° C., numeric values) [µM]	Average Time of Analgesia [3, 7] [h]	Average Time of Analgesia [3, 8] [h]	Average Time of Analgesia [3, 9] [h]	Average Time of Analgesia [3, 10] [h]	IC50 [4] [µM]	inhibition at 10 min, 0.5 mM [4] [%]	inhibition at 10 min, 1.5 mM [4] [%]	hTRPV1-N1E Nav 0.1 mM (% inhibition) 25° C. [2] [%]	hTRPV1-N1E Nav 0.1 mM (% inhibition) 47° C. [2, 11]	IC50 ([2]; 47° C., class symbols) [µM]	further results
CCN(CC)CC(=O)Nc1c(C)cccc1C [lidocaine]													time of return of analgesia to baseline (rats [1]; 100 μL lidocaine (2%) alone, sub-cutaneous): around 2 hours; analgesia (% maximal possible effect) reached (rats [1]; 100 μL lidocaine (2%) alone, sub-cutaneous, for around 0.5 hours post injection): 100%
CC[N+]1(CC)CCCC[C@H]1CCN(c1ccccc1)C1Cc2ccccc2C1.[I-] [Example 2, (S)-1,1-diethyl-2-[2-((indan-2-yl)(phenyl)amino)ethyl]piperidinium iodide]	50 (N = 2) %	9	0	4	10	>14	247	89.2	98.1				hTRPV1-N1E Nav (% inhibition) 25° C., tested at 0.5 mM ([2]; 0.5 mM (stated in cell, column head 0.1 mM), 25° C.): 44%; hTRPV1-N1E Nav (% inhibition) 47° C., tested at 0.5 mM ([2]; 0.5 mM (stated in cell, column head 0.1 mM), 47° C.): 89 (N = 2, 0.5 mM) %
CC[N+]1(CC)CCCC[C@@H]1CCN(c1ccccc1)C1Cc2ccccc2C1.[I-] [Example 11, (R)-1,1-Diethyl-2-[2-((indan-2-yl)(phenyl)amino)ethyl]piperidinium iodide]	71 (N = 2) %				7		44	97.9	97.8	0	72%	10 to 100	
C[N+]1(C)CCCCC1CN(c1ccccc1)C1Cc2ccccc2C1.[I-] (stereo not drawn) [Example 3, 1,1-dimethyl-2-[((indan-2-yl)(phenyl)amino)methyl]piperidinium iodide]	23 (N = 2) %	37	4	9	12	>15	190	77.6	99.1	16	67 (N = 2) %		hTRPV1-N1E Nav 1 mM (% inhibition) 47° C. ([2]; 1 mM, 47° C. (heat activation of hTRPV1)): 60 (N = 2) %; analgesic effects in the absence of lidocaine ([3]; absence of lidocaine): analgesic effects of significant duration
CC[N+](CC)(CC)CC(=O)Nc1c(C)cccc1C [QX-314, reference compound]			2	2	6	9							IC50 [5]: 30 µM
Cc1ccccc1N(CC[C@H]1CCCC[N+]1(C)C)C1Cc2ccccc2C1.[Br-] [Example 43, (R)-2-[2-(Indan-2-yl-o-tolyl-amino)-ethyl]-1,1-dimethyl-piperidinium bromide]										93.9		1 to 10	Average Time of Analgesia ([3]; test compound 0.2%, lidocaine 2%, total injection 200 μL): 28 h; duration of analgesia, combination with lidocaine compared to compound alone (rats [1]; 100 μL sub-cutaneous injection, 0.2%, with lidocaine 2% vs alone): extended duration of analgesia; duration of marked motor deficit post injection (rats [6]; unilateral peri-sciatic injection): 2 h; time of gradual return of foot print score to normal (rats [6]; remaining hours of assessment after the first 6 hours): ~20 h
